The values below come from article PMC6058667 (Drug Delivery, 2018).

One experiment relates to HepG-2 cells. The experiment can be described thus: MTT cytotoxicity assay. The experiment is classed as cell-based. As to conditions: HepG-2 hepatoma cell line, 48 h. On the procedure:
The in vitro cytotoxicity of CuB-MMs-CPs was assessed using the MTT assay. HepG-2 cells were seeded onto 96-well plates in 200 μL. DMEM was applied to obtain a concentration of 5000 cells per well and cultured at 37 °C, 5% CO2 for 24 h to allow attachment of cells. […] The percentage of cell viability was calculated on the basis of the optical density values at 490 nm of the sample wells, which contained cells treated with the culture medium.

The next experiment has as its system HepG-2 xenografts. The experiment can be described thus: Antitumor study in nude mice bearing HepG-2 xenografts. The experiment is classed as in vivo. As to conditions: oral, equivalent CuB dose 2 mg/kg, versus saline. On the procedure: For in vivo study, we used a nude mouse as a model for HepG-2 […]. […] All treatments were orally administered on days 1, 3, 5, 7, 9, 11, 13, 15, 17, 19, and 21. The volume of the tumor was measured daily. On day 22, mice were killed and tumors were weighed.

For Cucurbitacin B [CuB], the IC50 in the experiment on HepG-2 cells was found to be 104 ± 50.3 nM. The Tumor growth result in the experiment with HepG-2 xenografts is “slightly slower growth than animals administered with saline”.

The IC50 is the concentration that inhibits the measured activity by half. Low readings indicate higher potency, high ones lower potency.
